Patent publication US10633377B2, “Imidazole and thiazole compositions for modifying biological signaling” (Ohio University, priority 2014, dated 2020)
Like-named read-outs stand apart in the source and are kept apart here.

Key:
[1] = tested on: IL-6 transcripts; experiment: Inhibition of LPS induction of IL-6 transcripts in macrophages (rt-PCR); format: cell-based, Murine; settings: for IC50: LPS-treated murine macrophages, mRNA transcripts by rt-PCR
Procedure: (§1) Murine macrophages were treated with LPS in the presence of various exemplary compounds described above. Subsequently, the cells were harvested and the transcripts for IL-6, iNOS, and INF-β quantified via rt-PCR. IC50 is the concentration of the compounds required to inhibit 50% of the mRNA transcripts induced by LPS. TC50 is the concentration of the compounds required to diminish the MTS signal by 50% (MTS signal correlates with cell metabolism/viability). Therapeutic Index (TI) is the ratio of TC50 to IC50.
(§2) In TABLE 4, data are provided that show effects of exemplary compounds described above on the inhibition of LPS induction of IL-6, iNOS, and INF-β transcripts in macrophages. The IL-6, iNOS, and INF-β transcripts are key mediators in a plethora of signaling networks that are involved in normal physiology and pathological processes. The mechanism by which LPS induces the IL-6, iNOS, and INF-β transcripts is via a network of signaling events. […] Data in TABLE 4 that was not calculatable is noted “NC.”

[2] = tested on: iNOS transcripts; experiment: Inhibition of LPS induction of iNOS transcripts in macrophages (rt-PCR); format: cell-based; settings: LPS-treated murine macrophages, mRNA transcripts by rt-PCR
Procedure: as §1, §2

[3] = tested on: INF-β transcripts; experiment: Inhibition of LPS induction of INF-β transcripts in macrophages (rt-PCR); format: cell-based, Murine; settings: for IC50: LPS-treated murine macrophages, mRNA transcripts by rt-PCR
Procedure: as §1, §2

[4] = MTS signal (cell metabolism/viability); format: cell-based, Murine; settings: mouse, murine macrophages; concentration required to diminish the MTS signal by 50%; read-out: Average TC50
Procedure: as §1

[5] = tested on: Murine macrophages; experiment: MTS signal (cell metabolism/viability); format: cell-based
Procedure: as §1

IC50 ([1]; Mus musculus, Macrophage)	IC50 ([2]; Mus musculus, Macrophage)	IC50 ([3]; Mus musculus, Macrophage)	Compound	CC50 [4]	further results
	0.45 µM	1.25 µM	COc1ccc(C2(O)CSC(=S)N2Cc2cccnc2)cc1 (stereo not drawn) [COB-201]	10 µM	
	2.2 µM	4.4 µM	O=c1oc2ccccc2cc1C1(O)CSC(=S)N1Cc1cccnc1 (stereo not drawn) [COB-202]	43 µM	
19.5 µM		8 µM	COc1ccc(OC)c(-c2csc(=S)n2Cc2cccnc2)c1 [COB-203]	270 µM	
5 µM	7 µM	14 µM	COc1ccc(-c2csc(=S)n2Cc2cccnc2)c(OC)c1 [COB-204]	130 µM	
10.5 µM	54 µM	30 µM	COc1ccc(-c2csc(=S)n2Cc2cccnc2)cc1 [COB-206]	120 µM	
16 µM	2 µM	3 µM	CCCN1C(=S)SCC1(O)c1ccc(Cl)c(Cl)c1 (stereo not drawn) [COB-210]	45 µM	
	3.4 µM	3.6 µM	CCCCCCN1C(=S)SCC1(O)c1ccccc1 (stereo not drawn) [COB-212]	54 µM	
6 µM	10.5 µM		CCCn1c(-c2cccnc2)csc1=S [COB-214]	230 µM	
8.8 µM	~10 µM	~10 µM	CCCn1c(-c2cccc([N+](=O)[O-])c2)csc1=S [COB-215]	~100 µM	
9.5 µM		10.5 µM	CCCCCCn1c(-c2ccccc2)csc1=S [COB-218]		MTS signal decrease ([5]; 100 μM): 0%
8.5 µM	~20 µM	16.5 µM	CCCn1c(-c2ccc(Cl)c(Cl)c2)csc1=S [COB-219]		MTS signal decrease ([5]; 100 μM): 30%
5.5 µM	3.75 µM	12.2 µM	CCCn1c(-c2cc(OC)ccc2OC)csc1=S [COB-220]	60 µM	
> 10 µM	1.8 µM	1.5 µM	Oc1ccc(Cl)cc1C1(O)CSC(=S)N1Cc1ccccc1 (stereo not drawn) [COB-221]	18 µM	
8.6 µM	0.45 µM	0.45 µM	Oc1ccc(Cl)cc1C1(O)CSC(=S)N1Cc1cccnc1 (stereo not drawn) [COB-222]	15 µM	
3.5 µM	0.4 µM	0.4 µM	Cc1ccc(C)c(C2(O)CSC(=S)N2Cc2cccnc2)c1 (stereo not drawn) [COB-223]	14 µM	
3.5 µM	0.4 µM	0.45 µM	Cc1ccccc1C1(O)CSC(=S)N1Cc1cccnc1 (stereo not drawn) [COB-224]	13 µM	
12.5 µM	1.5 µM	1.5 µM	OC1(c2cc(C(F)(F)F)ccc2Cl)CSC(=S)N1Cc1cccnc1 (stereo not drawn) [COB-226]	33 µM	
8.1 µM	~10 µM	~10 µM	CCCn1c(-c2ccc(C#N)cc2)csc1=S [COR-216]	> 100 µM	

The remaining lines, values behind:

Compound	IC50 ([1]; Mus musculus, Macrophage)	IC50 ([2]; Mus musculus, Macrophage)	IC50 ([3]; Mus musculus, Macrophage)	CC50 [4]	further results
COc1cccc(-c2c[nH]c(=S)n2C)c1 [COB-117]	30 µM	36 µM	22 µM		
Cn1c(-c2cccc(Cl)c2)c[nH]c1=S [COB-119]	45 µM	60 µM	46 µM	390 µM	
COc1ccc(-c2c[nH]c(=S)n2C)cc1OC [COB-123]	19 µM	55 µM	21 µM		
CCn1c(-c2cccc(Cl)c2)c[nH]c1=O [COB-125]	31 µM	43 µM	36 µM	500 µM	
COc1ccc(-c2c[nH]c(=S)n2C)c(OC)c1 [COB-130]	29 µM	26 µM	47 µM		
COc1ccc(OC)c(-c2c[nH]c(=S)n2C)c1 [COB-132]	26 µM	38 µM	85 µM	360 µM	
Cn1c(-c2ccc(OC(F)(F)F)cc2)c[nH]c1=S [COB-134]	66 µM	87 µM	135 µM		
COc1ccc(OC)c(C2(O)CSC(=S)N2Cc2ccccc2)c1 (stereo not drawn) [COB-143]	13 µM	3 µM	1 µM	23 µM	
OC1(c2ccccc2)CSC(=S)N1Cc1cccnc1 (stereo not drawn) [COB-152]	4.25 µM	0.156 µM	0.156 µM	18 µM	
OC1(c2ccccc2)CSC(=S)N1CCCc1ccccc1 (stereo not drawn) [COB-168]	17 µM	1.5 µM	1.5 µM	12 µM	
S=c1scc(-c2ccccc2)n1CCc1ccccc1 [COB-177]	8 µM	32 µM	13 µM		
OC1(c2ccccc2)CSC(=S)N1Cc1nc2ccccc2[nH]1 (stereo not drawn) [COB-183]	19 µM	9.5 µM	8 µM	> 50 µM	
OC1(c2ccccc2)CSC(=S)N1Cc1cccc(CN2C(=S)SCC2(O)c2ccccc2)c1 (stereo not drawn) [COB-186]		1.9 µM		4 µM	IL-6 inhibition printed in IC50 column ([1]; 0.03 μM-2 μM): <30%; INF-β inhibition printed in IC50 column ([3]; 0.5 μM-2 μM): 40%
OC1(c2ccccc2)CSC(=S)N1Cc1ccncc1 (stereo not drawn) [COB-187]		0.375 µM	0.125 µM	15 µM	
OC1(c2ccccc2)CSC(=S)N1Cc1ccc2[nH]ccc2c1 (stereo not drawn) [COB-188]		0.25 µM	0.25 µM	13 µM	
Oc1cccc(C2(O)CSC(=S)N2Cc2ccccc2)c1 (stereo not drawn) [COB-196]		0.5 µM	0.375 µM	17 µM	
COc1ccc(OC)c(C2(O)CSC(=S)N2Cc2cccnc2)c1 (stereo not drawn) [COB-197]		2.5 µM	2.5 µM		
Oc1cccc(C2(O)CSC(=S)N2Cc2cccnc2)c1 (stereo not drawn) [COB-198]		0.15 µM	0.2 µM	17 µM	
COc1ccc(C2(O)CSC(=S)N2Cc2cccnc2)c(OC)c1 (stereo not drawn) [COB-199]		2.2 µM	> 5 µM	23 µM	
Oc1ccc(C2(O)CSC(=S)N2Cc2cccnc2)c(O)c1 (stereo not drawn) [COB-200]		0.5 µM	0.4 µM	11 µM	
C=CCn1c(-c2ccccc2)csc1=S [COB-217]					IC50 [1]: 8.2 µM; IC50 [2]: ~10 µM; IC50 [3]: ~10 µM; MTS signal decrease [5]: 30%
COc1ccc(F)cc1C1(O)CSC(=S)N1Cc1cccnc1 (stereo not drawn) [COB-225]	32.5 µM	1 µM	1 µM	65 µM	
CCCN1C(=S)SCC1(O)c1cccnc1 (stereo not drawn) [COR-207]	12 µM	2.7 µM	2.1 µM		
